In US7390641B2, “Production of peroxidase from plant cell and callus cultures” (Council of Scientific and Industrial Research, priority 2004, dated 2008):
Where two headings read alike, the source gives them in different places.

Experiments:
[1] = tested on: callus cultures of Nirgundi (Vitex negundo); assay: Effect of growth regulators on callus growth and enzyme activity of callus cultures; type: cell-based; settings: MS medium, Vitex negundo leaf callus; result in words
From the text: Leaf tissues were taken as explants for callus initiation after being properly washed in 10% Labolene followed by surface sterilization in 0.1% Mercuric chloride under aseptic conditions and inoculated in Murashige and Skoog (MS) medium containing 3% sucrose, 0.8% agar in addition to plant growth regulators like kinetin (6-furfuryl amino purine), BAP (benzyl amino purine), 2,4-D (2,4-dichlorophenoxyacetic acid), NAA (naphthalene acetic acid), IBA (indole-3-butyric acid) alone and in different combinations and sub culturing was also done in similar hormone combinations for proliferation. When no hormone was supplied in the medium, callus growth was very slow albeit showing good peroxidase activity. […] The pH was kept at 5.8 in all the experiments. Once established, the liquid suspension was maintained by the sub-culturing of 10 ml each of 7 day culture into 100 ml of fresh media in 250 ml Erlenmeyer flasks and the CCAs were also maintained by the subsequent sub-culturing of 5 g each of the sample into fresh liquid media and the flasks were placed on a gyratory shaker at 120 rpm in the light at 25° C. Viability as well as activity was maintained even after a period of 6 months.

[2] = tested on: Vitex extra cellular peroxidase; type: biochemical, Vitex negundo

O=C(O)COc1ccc(Cl)cc1Cl [2,4-D, 2,4-dichlorophenoxyacetic acid]
Effect on callus growth and enzyme activity [1]: reduce both the callus growth as well as enzyme activity

c1ccc(CNc2ncnc3[nH]cnc23)cc1 [BA, benzyl amino purine]
Effect on callus growth and enzyme activity [1]: better callus growth as well as enzyme activity

[Ca+2].[Cl-].[Cl-] [CaCl2]
Relative activity(%) ([2]; Reagent 1 Mm, None = 100): 103% | Effect on Vitex peroxidase activity (inhibitor / enhancer / no change) ([2]; result in words): no change in activity

O=C(O)CN(CCN(CC(=O)O)CC(=O)O)CC(=O)O [EDTA]
Effect on Vitex peroxidase activity (inhibitor / enhancer / no change) [2]: enhancers | Relative activity(%) [2]: 113%

[Cl][Hg][Cl] [HgCl2]
inhibition ([2]; HgCl2, text b118): 60% | Relative activity(%) ([2]; Reagent 1 Mm, None = 100): 62% | Effect on Vitex peroxidase activity (inhibitor / enhancer / no change) ([2]; result in words): Inhibitors

O=C(O)Cc1c[nH]c2ccccc12 [IAA]
Effect on callus growth and enzyme activity [1]: reduce both the callus growth as well as enzyme activity

[I-].[K+] [KI]
Relative activity(%) ([2]; Reagent 1 Mm, None = 100): 116%

O=S(=O)([O-])[O-].[Mg+2] [MgSO4]
Relative activity(%) ([2]; Reagent 1 Mm, None = 100): 97% | Effect on Vitex peroxidase activity (inhibitor / enhancer / no change) ([2]; result in words): no change in activity

O=S(=O)([O-])[O-].[Mn+2] [MnSO4]
Relative activity(%) ([2]; Reagent 1 Mm, None = 100): 131% | Effect on Vitex peroxidase activity (inhibitor / enhancer / no change) ([2]; result in words): enhancers

[Cl-].[Na+] [NaCl]
Effect on Vitex peroxidase activity (inhibitor / enhancer / no change) [2]: enhancers | Relative activity(%) [2]: 110%

[N-]=[N+]=[N-].[Na+] [NaN3, sodium azide]
inhibition (reduction in activity) ([2]; 0.1 ml of 1 mM sodium azide in 2.4 ml of total assay volume): 30% | Relative activity(%) ([2]; Reagent 1 Mm, None = 100): 73% | Effect on Vitex peroxidase activity (inhibitor / enhancer / no change) ([2]; result in words): enhancers

O=S(=O)([O-])[O-].[Zn+2] [ZnSO4]
Relative activity(%) ([2]; Reagent 1 Mm, None = 100): 138% | Effect on Vitex peroxidase activity (inhibitor / enhancer / no change) ([2]; result in words): enhancers
